According to ChEMBL document CHEMBL3046635, “Synthesis and Herbicidal Activity of New Pyrazole-4-carboxamide Derivatives” (J Pestic Sci, 2004):
Active and inactive are the calls of the source.

Key:
Rotala indica [1] = assay: Pre-emergence herbicidal activity against Rotala indica at 500 g a.i/ha measured after 14 days; assay type: functional, organism-based
Echinochloa oryzicola [2] = assay: Pre-emergence herbicidal activity against Echinochloa oryzicola at 500 g a.i/ha measured after 14 days; assay type: functional, organism-based
Pontederia vaginalis [3] = assay: Post-emergence herbicidal activity against Monochoria vaginalis assessed as bleaching of stem/leaf parts; assay type: functional, organism-based; also: test concentration or dose not given here
Eleocharis acicularis [4] = assay: Pre-emergence herbicidal activity against Eleocharis acicularis at 500 g a.i/ha measured after 14 days; assay type: functional, organism-based
Rotala indica [5] = assay: Post-emergence herbicidal activity against Rotala indica assessed as bleaching of stem/leaf parts; assay type: functional, organism-based; also: test concentration or dose not given here
Ammannia multiflora [6] = assay: Pre-emergence herbicidal activity against Ammannia multiflora at 500 g a.i/ha measured after 14 days; assay type: functional, organism-based
Ammannia multiflora [7] = assay: Pre-emergence herbicidal activity against Ammannia multiflora assessed as bleaching of stem/leaf parts; assay type: functional, organism-based
Cyperus difformis [8] = assay: Post-emergence herbicidal activity against Cyperus difformis assessed as bleaching of stem/leaf parts; assay type: functional, organism-based; also: test concentration or dose not given here
[9] = test system: Schoenoplectiella juncoides; assay: Post-emergence herbicidal activity against Schoenoplectiella juncoides assessed as bleaching of stem/leaf parts; assay type: functional, organism-based; also: test concentration or dose not given here
Cyperus difformis [10] = assay: Pre-emergence herbicidal activity against Cyperus difformis assessed as bleaching of stem/leaf parts; assay type: functional, organism-based
Elatine triandra [11] = assay: Post-emergence herbicidal activity against Elatine triandra assessed as bleaching of stem/leaf parts; assay type: functional, organism-based; also: test concentration or dose not given here
Elatine triandra [12] = assay: Pre-emergence herbicidal activity against Elatine triandra at 500 g a.i/ha measured after 14 days; assay type: functional, organism-based
Lindernia procumbens [13] = assay: Pre-emergence herbicidal activity against Lindernia procumbens at 500 g a.i/ha measured after 14 days; assay type: functional, organism-based
Echinochloa oryzicola [14] = assay: Pre-emergence herbicidal activity against Echinochloa oryzicola assessed as bleaching of stem/leaf parts; assay type: functional, organism-based
Ammannia multiflora [15] = assay: Post-emergence herbicidal activity against Ammannia multiflora assessed as bleaching of stem/leaf parts; assay type: functional, organism-based; also: test concentration or dose not given here
Elatine triandra [16] = assay: Pre-emergence herbicidal activity against Elatine triandra assessed as bleaching of stem/leaf parts; assay type: functional, organism-based
Cyperus difformis [17] = assay: Pre-emergence herbicidal activity against Cyperus difformis at 500 g a.i/ha measured after 14 days; assay type: functional, organism-based
Rotala indica [18] = assay: Pre-emergence herbicidal activity against Rotala indica assessed as bleaching of stem/leaf parts; assay type: functional, organism-based
Lindernia procumbens [19] = assay: Post-emergence herbicidal activity against Lindernia procumbens assessed as bleaching of stem/leaf parts; assay type: functional, organism-based; also: test concentration or dose not given here
[20] = test system: Schoenoplectiella juncoides; assay: Pre-emergence herbicidal activity against Schoenoplectiella juncoides at 500 g a.i/ha measured after 14 days; assay type: functional, organism-based
Oryza sativa = assay: Phytotoxicity against Oryza sativa cv. Koshihikari (rice) at 500 g a.i/ha measured after 14 days; assay type: organism-based; conditions: in vivo, 336 h
Echinochloa oryzicola [21] = assay: Post-emergence herbicidal activity against Echinochloa oryzicola assessed as bleaching of stem/leaf parts; assay type: functional, organism-based; also: test concentration or dose not given here
Pontederia vaginalis [22] = assay: Pre-emergence herbicidal activity against Monochoria vaginalis at 500 g a.i/ha measured after 14 days; assay type: functional, organism-based
[23] = test system: Schoenoplectiella juncoides; assay: Pre-emergence herbicidal activity against Schoenoplectiella juncoides assessed as bleaching of stem/leaf parts; assay type: functional, organism-based
Pontederia vaginalis [24] = assay: Pre-emergence herbicidal activity against Monochoria vaginalis assessed as bleaching of stem/leaf parts; assay type: functional, organism-based
Lindernia procumbens [25] = assay: Pre-emergence herbicidal activity against Lindernia procumbens assessed as bleaching of stem/leaf parts; assay type: functional, organism-based
Eleocharis acicularis [26] = assay: Post-emergence herbicidal activity against Eleocharis acicularis assessed as bleaching of stem/leaf parts; assay type: functional, organism-based; also: test concentration or dose not given here
Eleocharis acicularis [27] = assay: Pre-emergence herbicidal activity against Eleocharis acicularis assessed as bleaching of stem/leaf parts; assay type: functional, organism-based

Cc1c(C(=O)NOc2ccc(F)cc2F)c(OCc2cccc(C(F)(F)F)c2)nn1C
Activity (Rotala indica [1]): inactive
Activity (Echinochloa oryzicola [2]): inactive
Activity (Pontederia vaginalis [3]): Active
Activity (Eleocharis acicularis [4]): inactive
Activity (Rotala indica [5]): Active
Activity (Ammannia multiflora [6]): inactive
Activity (Ammannia multiflora [7]): Active
Activity (Cyperus difformis [8]): Active
Activity [9]: Active
Activity (Cyperus difformis [10]): Active
Activity (Elatine triandra [11]): Active
Activity (Elatine triandra [12]): inactive
Activity (Lindernia procumbens [13]): inactive
Activity (Echinochloa oryzicola [14]): Active
Activity (Ammannia multiflora [15]): Active
Activity (Elatine triandra [16]): Active
Activity (Cyperus difformis [17]): inactive
Activity (Rotala indica [18]): Active
Activity (Lindernia procumbens [19]): Active
Activity [20]: Active
Activity (Oryza sativa): Non-toxic
Activity (Echinochloa oryzicola [21]): Active
Activity (Pontederia vaginalis [22]): inactive
Activity [23]: Active
Activity (Pontederia vaginalis [24]): Active
Activity (Lindernia procumbens [25]): Active
Activity (Eleocharis acicularis [26]): Active
Activity (Eleocharis acicularis [27]): Active

Cn1cc(C(=O)Nc2ccc(C#N)cc2)c(OCc2cccc(C(F)(F)F)c2)n1
Activity (Rotala indica [1]): Active
Activity (Echinochloa oryzicola [2]): inactive
Activity (Pontederia vaginalis [3]): Active
Activity (Eleocharis acicularis [4]): inactive
Activity (Rotala indica [5]): Active
Activity (Ammannia multiflora [6]): Active
Activity (Ammannia multiflora [7]): Active
Activity (Cyperus difformis [8]): Active
Activity [9]: Active
Activity (Cyperus difformis [10]): Active
Activity (Elatine triandra [11]): Active
Activity (Elatine triandra [12]): Active
Activity (Lindernia procumbens [13]): Active
Activity (Echinochloa oryzicola [14]): Active
Activity (Ammannia multiflora [15]): Active
Activity (Elatine triandra [16]): Active
Activity (Cyperus difformis [17]): inactive
Activity (Rotala indica [18]): Active
Activity (Lindernia procumbens [19]): Active
Activity [20]: inactive
Activity (Oryza sativa): Non-toxic
Activity (Echinochloa oryzicola [21]): Active
Activity (Pontederia vaginalis [22]): inactive
Activity [23]: Active
Activity (Pontederia vaginalis [24]): Active
Activity (Lindernia procumbens [25]): Active
Activity (Eleocharis acicularis [26]): Active
Activity (Eleocharis acicularis [27]): Active

Cn1cc(C(=O)NOc2ccc(C(C)(C)C)cc2)c(OCc2cccc(C(F)(F)F)c2)n1
Activity (Rotala indica [1]): inactive
Activity (Echinochloa oryzicola [2]): inactive
Activity (Pontederia vaginalis [3]): Active
Activity (Eleocharis acicularis [4]): inactive
Activity (Rotala indica [5]): Active
Activity (Ammannia multiflora [6]): inactive
Activity (Ammannia multiflora [7]): Active
Activity (Cyperus difformis [8]): Active
Activity [9]: Active
Activity (Cyperus difformis [10]): Active
Activity (Elatine triandra [11]): Active
Activity (Elatine triandra [12]): inactive
Activity (Lindernia procumbens [13]): inactive
Activity (Echinochloa oryzicola [14]): Active
Activity (Ammannia multiflora [15]): Active
Activity (Elatine triandra [16]): Active
Activity (Cyperus difformis [17]): inactive
Activity (Rotala indica [18]): Active
Activity (Lindernia procumbens [19]): Active
Activity [20]: inactive
Activity (Oryza sativa): Non-toxic
Activity (Echinochloa oryzicola [21]): Active
Activity (Pontederia vaginalis [22]): inactive
Activity [23]: Active
Activity (Pontederia vaginalis [24]): Active
Activity (Lindernia procumbens [25]): Active
Activity (Eleocharis acicularis [26]): Active
Activity (Eleocharis acicularis [27]): Active

Cn1cc(C(=O)Nc2ccc(C(C)(C)C)cc2)c(OCc2cccc(C(F)(F)F)c2)n1
Activity (Rotala indica [1]): inactive
Activity (Echinochloa oryzicola [2]): inactive
Activity (Pontederia vaginalis [3]): Active
Activity (Eleocharis acicularis [4]): inactive
Activity (Rotala indica [5]): Active
Activity (Ammannia multiflora [6]): inactive
Activity (Ammannia multiflora [7]): Active
Activity (Cyperus difformis [8]): Active
Activity [9]: Active
Activity (Cyperus difformis [10]): Active
Activity (Elatine triandra [11]): Active
Activity (Elatine triandra [12]): inactive
Activity (Lindernia procumbens [13]): inactive
Activity (Echinochloa oryzicola [14]): Active
Activity (Ammannia multiflora [15]): Active
Activity (Elatine triandra [16]): Active
Activity (Cyperus difformis [17]): inactive
Activity (Rotala indica [18]): Active
Activity (Lindernia procumbens [19]): Active
Activity [20]: inactive
Activity (Oryza sativa): Non-toxic
Activity (Echinochloa oryzicola [21]): Active
Activity (Pontederia vaginalis [22]): inactive
Activity [23]: Active
Activity (Pontederia vaginalis [24]): Active
Activity (Lindernia procumbens [25]): Active
Activity (Eleocharis acicularis [26]): Active
Activity (Eleocharis acicularis [27]): Active

Cn1cc(C(=O)Nc2cccc(Cl)c2)c(OCc2cccc(C(F)(F)F)c2)n1
Activity (Rotala indica [1]): Active
Activity (Echinochloa oryzicola [2]): inactive
Activity (Pontederia vaginalis [3]): Active
Activity (Rotala indica [5]): Active
Activity (Ammannia multiflora [6]): Active
Activity (Ammannia multiflora [7]): Active
Activity (Cyperus difformis [8]): Active
Activity [9]: Active
Activity (Cyperus difformis [10]): Active
Activity (Elatine triandra [11]): Active
Activity (Elatine triandra [12]): Active
Activity (Lindernia procumbens [13]): Active
Activity (Echinochloa oryzicola [14]): Active
Activity (Ammannia multiflora [15]): Active
Activity (Elatine triandra [16]): Active
Activity (Cyperus difformis [17]): inactive
Activity (Rotala indica [18]): Active
Activity (Lindernia procumbens [19]): Active
Activity [20]: Active
Activity (Oryza sativa): Non-toxic
Activity (Echinochloa oryzicola [21]): Active
Activity (Pontederia vaginalis [22]): inactive
Activity [23]: Active
Activity (Pontederia vaginalis [24]): Active
Activity (Lindernia procumbens [25]): Active
Activity (Eleocharis acicularis [26]): Active
Activity (Eleocharis acicularis [27]): Active

Cn1cc(C(=O)Nc2ccc(S(C)(=O)=O)cc2)c(OCc2cccc(C(F)(F)F)c2)n1
Activity (Rotala indica [1]): inactive
Activity (Echinochloa oryzicola [2]): inactive
Activity (Pontederia vaginalis [3]): Active
Activity (Rotala indica [5]): Active
Activity (Ammannia multiflora [6]): inactive
Activity (Ammannia multiflora [7]): Active
Activity (Cyperus difformis [8]): Active
Activity [9]: Active
Activity (Cyperus difformis [10]): Active
Activity (Elatine triandra [11]): Active
Activity (Elatine triandra [12]): inactive
Activity (Lindernia procumbens [13]): inactive
Activity (Echinochloa oryzicola [14]): Active
Activity (Ammannia multiflora [15]): Active
Activity (Elatine triandra [16]): Active
Activity (Cyperus difformis [17]): inactive
Activity (Rotala indica [18]): Active
Activity (Lindernia procumbens [19]): Active
Activity [20]: inactive
Activity (Oryza sativa): Non-toxic
Activity (Echinochloa oryzicola [21]): Active
Activity (Pontederia vaginalis [22]): inactive
Activity [23]: Active
Activity (Pontederia vaginalis [24]): Active
Activity (Lindernia procumbens [25]): Active
Activity (Eleocharis acicularis [26]): Active
Activity (Eleocharis acicularis [27]): Active
